Values after ≈ are worked out from the molar mass of the structure shown.
Experiments:
[1] = target: T1, human estrogen receptor α (hERα) (Homo sapiens, UniProt P03372); experiment: Yeast-based estrogen screen (YES) assay, β-galactosidase reporter gene; format: cell-based; conditions: for YES EC01 / YES EC10: single substances; for YES EC01: concentration needed to elicit a 1% effect of 1 nM E2; for YES EC10: concentration needed to elicit a 10% effect of 1 nM E2
T1 construct: expressed in transfected cells
Description: (§1) It should be taken into account that an increased turbidity could also mask cytotoxicity.
(§2) Normalized concentration-response data from the YES, ERα and ERβ CALUX assays were analyzed by nonlinear regression after the x-axis with the test substance concentrations was log-transformed. […] All mathematical/statistical analyses were performed using R version 3.1.2 (R Foundation for Statistical Computing, Vienna, Austria).

MCF-7 cells [2] = system: MCF-7 cells; parameters: method as in PMID 10789375; conditions: cited from earlier work
[3] = Insolubility in the YES assay medium (turbidity at 690 nm, cell-free control plate); conditions: for solubility: kinetic from dmso stock
Excerpt: as §1
The concentrations of the test substances to be tested were limited depending on their solubility. […] A decrease of turbidity in the YES assay was assumed to be equivalent to an inhibition of yeast cell growth.

hERα [4] = target: T2, hERα (Homo sapiens, UniProt P03372); experiment: ERα CALUX assay (U2-OS cell-based luciferase reporter gene); parameters: expressed in transfected cells; host or cells: human U2-OS cells; conditions: for ERα CALUX EC01: 1% effect (of 1 nM E2); for ERα CALUX EC10: 10% effect (of 1 nM E2)
Description: (§3) The ERα and ERβ CALUX assay were performed to evaluate the effect of the test substances on the hERα and hERβ as described by van der Burg et al. [21] with slight modifications. The pesticides were tested in three independent experiments, individually and as mixtures, in triplicates in 96-well plates. DMSO was used as solvent and was present in the test medium at a maximal concentration of 0.2% v/v. Solvent controls were included in each plate. […] The same plate also contained 3 μM 17α-methyltestosterone as additional estrogenic control as well as 10 nM corticosterone as negative control. […] A prescreen, in which all test substances were tested for estrogenicity between 0.01 μM and 60 μM, was performed. The three highest test substance concentrations and controls were checked for their ability to affect cell membrane integrity by quantification of the lactate dehydrogenase leakage (LDH) with the CytoTox-ONE™ Homogeneous Membrane Integrity Assay (Promega, Madison, WI, USA), which was performed as recommended by the manufacturer. Those test substance concentrations leading to a decline of the effect after a maximum was reached as well as those leading to insolubility were excluded from further experiments.
as §2

hERα [5] = target: T2, hERα; experiment: YES assay in combination with a saturating concentration of E2 (1 nM): anti-estrogenic or potentiating effects; format: cell-based, yeast; conditions: for maximum to which the effect of 1 nM E2 was enhanced: YES assay, combined with 1 nM E2, normalized to 1 nM E2; for effect when combined with 1 nM E2 in the YES assay (in words): saturating 1 nM E2
Description: Each pesticide and pesticide mixture was tested in quadruplicate in at least five experiments.

hERβ = target: T3, hERβ (Homo sapiens, UniProt Q92731); experiment: ERβ CALUX assay (U2-OS cell-based luciferase reporter gene); conditions: for estrogenic activity at the hERβ in the ERβ CALUX assay (in words): applied alone; for ERβ CALUX EC01 / ERβ CALUX EC10: single substances; for ERβ CALUX EC01: 1% effect (of 1 nM E2); for ERβ CALUX EC10: 10% effect (of 1 nM E2)
T3 construct: expressed in transfected cells; host or cells: human U2-OS cells
Description: as §3, §2

miR-21 = conditions: cited from earlier work
MCF-7 cells [6] = conditions: cited from earlier work
yeast cells = experiment: Cytotoxicity in the YES assay (decrease in optical density/turbidity at 690 nm); format: cell-based; conditions: assumed equivalent to inhibition of yeast cell growth, data not shown
hERα [7] = target: T2, hERα; conditions: in combination with 3 pM E2
MCF-7 cells [8] = conditions: with or without E2; 27 (pirimicarb), ref 11 (propamocarb); cited from earlier work
estrogen receptor = system: estrogen receptor; parameters: method as in PMID 11884232; conditions: in combination with a saturating concentration of E2; cited from earlier work

T3 sequence (Q92731 whole entry): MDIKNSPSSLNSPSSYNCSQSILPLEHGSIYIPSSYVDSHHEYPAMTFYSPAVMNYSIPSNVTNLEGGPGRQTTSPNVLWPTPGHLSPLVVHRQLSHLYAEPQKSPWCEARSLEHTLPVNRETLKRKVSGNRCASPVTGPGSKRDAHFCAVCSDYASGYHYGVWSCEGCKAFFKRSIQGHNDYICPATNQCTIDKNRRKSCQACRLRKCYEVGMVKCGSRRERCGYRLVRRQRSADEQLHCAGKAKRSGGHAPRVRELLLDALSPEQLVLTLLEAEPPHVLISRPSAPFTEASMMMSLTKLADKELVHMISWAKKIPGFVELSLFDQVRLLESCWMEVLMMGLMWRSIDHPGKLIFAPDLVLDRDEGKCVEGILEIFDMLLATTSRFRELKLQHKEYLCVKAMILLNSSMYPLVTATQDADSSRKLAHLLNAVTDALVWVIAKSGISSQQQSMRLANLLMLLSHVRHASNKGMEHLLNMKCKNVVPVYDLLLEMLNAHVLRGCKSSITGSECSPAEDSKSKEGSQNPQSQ
T2 sequence (P03372 whole entry): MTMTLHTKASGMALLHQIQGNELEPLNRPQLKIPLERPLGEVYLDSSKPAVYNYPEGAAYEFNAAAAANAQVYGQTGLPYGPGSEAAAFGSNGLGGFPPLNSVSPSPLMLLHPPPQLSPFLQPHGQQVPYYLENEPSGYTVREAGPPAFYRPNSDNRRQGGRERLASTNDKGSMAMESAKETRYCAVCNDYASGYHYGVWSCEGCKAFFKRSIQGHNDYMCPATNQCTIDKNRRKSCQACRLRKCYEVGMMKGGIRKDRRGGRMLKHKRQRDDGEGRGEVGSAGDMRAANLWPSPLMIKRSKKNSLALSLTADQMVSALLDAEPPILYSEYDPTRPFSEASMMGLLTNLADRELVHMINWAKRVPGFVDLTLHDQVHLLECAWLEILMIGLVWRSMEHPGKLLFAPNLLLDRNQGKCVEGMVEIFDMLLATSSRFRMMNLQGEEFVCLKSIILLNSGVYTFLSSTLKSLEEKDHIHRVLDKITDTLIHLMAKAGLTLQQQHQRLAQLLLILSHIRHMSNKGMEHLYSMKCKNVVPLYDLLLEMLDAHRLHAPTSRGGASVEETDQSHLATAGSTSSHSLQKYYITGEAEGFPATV
T1 sequence (P03372 whole entry): as above

SMILES | YES EC01 [1] [nM] | solubility [3] [µM] | ERα CALUX EC01 (hERα [4]; single substances) [nM] | ERα CALUX EC10 (hERα [4]; single substances) [µM] | estrogenic activity at the hERβ in the ERβ CALUX assay (in words) (hERβ) | ERβ CALUX EC01 (hERβ) [µM] | ERβ CALUX EC10 (hERβ) [µM] | other results
CCOP(=S)(OCC)Oc1nc(Cl)c(Cl)cc1Cl [chlorpyrifos] | 79.4 | 100 to 1000 (≈ 35.1 to 351 µg/mL) | 617 | 3.47 | – | – | – | effect in MCF-7 proliferation assay compared with E2 (MCF-7 cells [2]): without exceeding the effect of E2; maximum to which the effect of 1 nM E2 was enhanced (hERα [5]): 1.84
Clc1ccc(C(c2ccc(Cl)cc2)C(Cl)(Cl)Cl)cc1 [4,4’-DDT, 4,4’- dichlorodiphenyltrichloroethane] | – | – | – | – | dose-dependent estrogenic activity | 1.02 | – | concentrations leading to insolubility (tested in the YES assay) ([3]; YES assay medium): 50 to 500 µM
CC1(C(=O)Nc2ccc(O)c(Cl)c2Cl)CCCCC1 [fenhexamid] | – | 100 (≈ 30.2 µg/mL) | – | – | dose-dependent estrogenic activity | 1.17 | 5.01 | miR-21 expression in breast cancer cells (miR-21): increase of miR-21 expression; E2-induced cell proliferation in MCF-7 cells (MCF-7 cells [6]): inhibition of E2-induced cell proliferation; concentrations decreasing turbidity by more than 30% in comparison to the solvent control (yeast cells): ≥ 500 µM
OC(c1ccc(Cl)cc1)(c1cncnc1)c1ccccc1Cl (stereo not shown) [fenarimol] | 11700 | – | 794 | 2.82 | dose-dependent estrogenic activity | 3.63 | 13.5 | maximum effect normalized to the effect of 1 nM E2 ([1]; single substance, YES assay): 2.69; YES EC10 [1]: 21.9 µM; effect in MCF-7 proliferation assay compared with E2 (MCF-7 cells [2]): without exceeding the effect of E2; maximum effect relative to the effect of 0.1 nM E2 (hERα [4]; single substances, ERα CALUX assay): 1.17; maximum to which the effect of 1 nM E2 was enhanced (hERα [5]): 4.36
N#Cc1c[nH]cc1-c1cccc2c1OC(F)(F)O2 [fludioxonil] | 832 | 100 to 500 (≈ 24.8 to 124 µg/mL) | 363 | 1.26 | – | – | – | YES EC10 [1]: 26.3 µM; miR-21 expression in breast cancer cells (miR-21): increase of miR-21 expression; E2-induced cell proliferation in MCF-7 cells (MCF-7 cells [6]): inhibition of E2-induced cell proliferation; anti-estrogenic effect in the ERα CALUX assay (in words) (hERα [7]): an anti-estrogenic effect was not observed; inhibition of the E2 effect in the YES assay (hERα [5]; in combination with 1 nM E2): 44%; effect when combined with 1 nM E2 in the YES assay (in words) (hERα [5]): concentration-dependent anti-estrogenic effects
Clc1ccc(C(c2ccccc2Cl)C(Cl)(Cl)Cl)cc1 (stereo not shown) [2,4’-DDT, 2,4’-dichlorodiphenyltrichloroethane] | – | – | – | – | dose-dependent estrogenic activity | 0.055 | 0.603 | –
CCCOC(=O)NCCCN(C)C [propamocarb] | – | – | – | – | – | – | – | proliferation of MCF-7 cells in the E-Screen (MCF-7 cells [8]): did not stimulate the proliferation of MCF-7 cells
Cc1nc(N(C)C)nc(OC(=O)N(C)C)c1C [pirimicarb] | – | – | – | – | – | – | – | estrogenic activity in the YES assay (in words) ([1]; applied alone): negative; effect in transactivation assay with MCF-7 BOS cells (estrogen receptor): induced a stronger effect; estrogenic activity in the ERα CALUX assay (in words) (hERα [4]; applied alone): negative; proliferation of MCF-7 cells in the E-Screen (MCF-7 cells [8]): did not stimulate the proliferation of MCF-7 cells; effect when combined with 1 nM E2 in the YES assay (in words) (hERα [5]): negative

Source: article PMC4728068, “Mixture Effects of Estrogenic Pesticides at the Human Estrogen Receptor α and β” (PLoS ONE, 2016)
